Consider six molecules from patent US20250136607A1 (REGOR PHARMACEUTICALS, INC., priority 2021, published 2025).

Experiment [1] concerns Citrullinated Histone H3 in 4T1 (TNBC cell line) cells. As to the kind of experiment: 4T1 CECN ELISA assay. As to conditions: 4T1 cells, stimulation with 50 μM A23187 for 4 h, read-out: Average IC50 Abs. Type of experiment: cell-based. On the procedure:
Cell culture: 4T1 cells were grown in DMEM+10% FBS+1% HEPES+1% PS. Cells plating: • 1) 4T1 cells were collected and the plate was centrifuged at 1000 rpm for 5 min. • 2) The 4T1 cells were diluted to 0.5×10^6 cells/mL and plated into a 96-well plate with 100 μL/well. The plate was then incubated in the incubator (5% CO2, 37° C.) for overnight to allow cells to adhere, exchanged fresh culture medium with 100 μL/well. Compound treatment: • 1) Preparation of compound serial dilution (source plate 500×, final DMSO concentration: 0.2%): briefly, compounds were dissolved in 100% DMSO to a concentration of 20 mM (the stock solution) and a 3-fold serial dilution with 8-point doses was performed. • 2) 10× compound solution was pipetted up and down; and 10 μL/well of compounds were added into each well and incubated for 30 min. Stimulation with 50 μM A23187: • 1) A solution of A23187 (500 μM) in complete DMDM (DMDM+10% FBS+1% PS+1 mM CaCl2) containing 150 U/mL S7 Nuclease was prepared. The obtained solution was added 10 μL/well into each well and incubated for 4 h in the incubator (5% CO2, 37° C.). • 2) The 4T1 cells treated with 10 μL/well complete DMDM without A23187 worked as negative control. Sample preparation: • 1) EDTA (0.5 M, 2 μL/well) were added to all the wells to stop the reaction. • 2) The plate was centrifuged at 1000 rpm for 5 min to collect supernatant. • 3) The supernatant was then diluted at least 1:2 before adding to the ELISA plate for citrullinated H3 analysis.
The standard was reconstituted with 2 mL of Assay buffer to 500 ng/mL. The reconstituted standard was relatively unstable at 4° C. and should be used within 3 hr after reconstitution.
• 1) 100 μL of the standards or diluted samples were added to the wells on the ELISA plate. • 2) The plate was covered with Cover Sheet and incubated for 2 h at RT on an orbital shaker.
On the day of the assay, the reagent was thawed at rt. For one plate, 1.2 mL of HRP Conjugate were diluted into 10.8 mL of assay buffer. A diluted HRP Conjugate was prepared shortly before use.
• 1) The wells were empties and rinsed four times with 1× wash buffer with 300 μL/well (Low speed). The plate was inverted between wash steps to empty the plate. After the last wash, the inverted plate was gently tapped on absorbent paper to remove the residual wash buffer. • 2) 100 μL of the HRP Conjugate working solution were added to each well of the plate. • 3) The plate was covered with cover sheet and incubated for 1 h at RT on an orbital shaker.
• 1) The wells were empties and rinsed four times with 1× wash buffer with 300 μL/well (low speed). The plate was inverted between wash steps to empty the plate. […] 100 μL of HRP STOP solution were added to each well of the plate.
• 1) Wipe the bottom of the plate with a clean tissue to remove fingerprints, dirt, etc. • 2) Read the plate at a wavelength of 450 nm.
The percent (%) inhibition at each concentration of compound was calculated based on and relative to the signal in the HPE and ZPE wells contained within each assay plate. The HPE wells worked as […], and the ZPE wells didn't contain any compound but rather DMSO (final concentration=[…]) as […]. The concentrations and % inhibition values for tested compounds were plotted and the concentration of compound required for 50% inhibition (IC50) was determined with a Four-parameter logistic dose response equation. The endpoint value (IC50) for the reference peptide/compound was evaluated in each experiment as a quality control measure. If the endpoint value is within 3-fold of the expected value then the experiment is deemed acceptable. The results of representative compounds of the present invention are provided in Table 3 below. ≤0.1 μM=“++++”; >0.1 and ≤0.5 μM=“+++”; >0.5 and ≤5.0 μM=“++”; >5.0 μM=“+”. “−”=not available.

For experiment [2], the target named is Protein arginine deiminase 4 (PAD4) (Homo sapiens, UniProt Q9UM07). As to the kind of experiment: PAD4 ammonia release assay. Type of experiment: biochemical. As to conditions: for IC50: PAD4 ammonia release assay, BAEE substrate, 60 min at RT, read-out: Average IC50 Abs; for relative potency of separated isomers in the PAD4 biochemical assay: SFC-separated stereoisomer pairs. The method in brief:
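PAD4 (20 nM, 2× working solution) was preincubated with compound for 15 min at RT in 100 mM HEPES pH 8.0, 2 mM CaCl2, 50 mM NaCl, 0.1 mM TCEP, BSA at 1.25% DMSO. BAEE (600 μM, 2× mix) reacted 60 min, then OPA/DTT/EDTA detection for 120 min. IC50 came from a 4-parameter fit, normalized to 50 μM reference (100%) and DMSO (0%).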

Like-named read-outs stand apart in the source and are kept apart here.

Chain of Protein arginine deiminase 4 (PAD4) (Q9UM07 whole entry): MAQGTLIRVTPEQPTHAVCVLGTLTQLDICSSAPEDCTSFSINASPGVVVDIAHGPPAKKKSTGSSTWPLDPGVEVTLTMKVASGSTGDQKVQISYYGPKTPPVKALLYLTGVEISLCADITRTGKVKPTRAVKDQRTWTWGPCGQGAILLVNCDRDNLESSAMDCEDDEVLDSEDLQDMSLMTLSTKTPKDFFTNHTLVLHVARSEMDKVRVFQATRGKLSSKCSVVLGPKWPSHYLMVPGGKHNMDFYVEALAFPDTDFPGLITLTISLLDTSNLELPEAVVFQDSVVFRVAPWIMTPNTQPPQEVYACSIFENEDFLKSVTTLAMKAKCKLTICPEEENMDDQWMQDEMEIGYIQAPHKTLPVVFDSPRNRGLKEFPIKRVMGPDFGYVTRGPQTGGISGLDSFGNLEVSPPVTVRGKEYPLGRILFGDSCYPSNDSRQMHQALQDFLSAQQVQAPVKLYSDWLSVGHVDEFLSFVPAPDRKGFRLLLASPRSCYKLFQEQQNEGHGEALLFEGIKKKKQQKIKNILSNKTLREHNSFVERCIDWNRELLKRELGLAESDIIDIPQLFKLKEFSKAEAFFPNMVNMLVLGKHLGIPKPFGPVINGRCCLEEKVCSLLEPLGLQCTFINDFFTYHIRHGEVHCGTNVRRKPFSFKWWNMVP

The term IC50 denotes the concentration that gives 50% inhibition. On to `CCC1CN(CCCO)c2cccc3cc(-c4nc5cc(C(=O)N6C[C@H]7CC[C@@H]6[C@@H]7N)cc(OC)c5n4C)n1c23` (single isomer, unassigned) [Example 87], for which, in experiment [1], the 50% inhibitory concentration (IC50) was no more than 100 nM. In addition, in experiment [2], the half-maximal inhibitory concentration (IC50) fell in the range of 100 to 500 nM and the “relative potency of separated isomers in the PAD4 biochemical assay” value was “more potent than Example 86”.
`CCC1CN(CCCO)c2cccc3cc(-c4nc5cc(C(=O)N6C[C@H](N)C[C@@H](F)C6)cc(F)c5n4C)n1c23` (stereo partly drawn) [Example 75, ((3R,5R)-3-amino-5-fluoropiperidin-1-yl)(2-(3-ethyl-1-(3-hydroxypropyl)-2,3-dihydro-1H-pyrrolo[1,2,3-de]quinoxalin-5-yl)-7-fluoro-1-methyl-1H-benzo[d]imidazol-5-yl)methanone]: the IC50 lay within 100 to 500 nM in experiment [1] (Mus musculus, 4T1, 4 h) and 100 to 500 nM in experiment [2].
For the molecule `CCC1CN(CCCO)c2cccc3cc(-c4nc5cc(C(=O)N6C[C@H](N)C[C@@H](F)C6)cc(OC)c5n4C)n1c23` (single isomer, unassigned) [Example 82], in experiment [1] (Mus musculus, 4T1, 4 h), the IC50 is no more than 100 nM. In addition, in experiment [2], the IC50 is no more than 100 nM and the “relative potency of separated isomers in the PAD4 biochemical assay” value is “more potent than Example 81”.
Take `C#CCn1c(-c2cc3cccc4c3n2C(CC)CN4CCCO)nc2cc(C(=O)N3C[C@H](N)C[C@@H](F)C3)cc(OC)c21` (stereo partly drawn) [Example 95, ((3R,5R)-3-amino-5-fluoropiperidin-1-yl)(2-(3-ethyl-1-(3-hydroxypropyl)-2,3-dihydro-1H-pyrrolo[1,2,3-de]quinoxalin-5-yl)-7-methoxy-1-(prop-2-yn-1-yl)-1H-benzo[d]imidazol-5-yl)methanone]: the IC50 is no more than 100 nM in experiment [1] (Mus musculus, 4T1, 4 h) and 100 to 500 nM in experiment [2].
For the molecule `CCC1CN(CCCO)c2cccc3cc(-c4nc5cc(C(=O)N6C[C@H]7CC[C@@H]6[C@@H]7N)cc(OC)c5n4C)n1c23` (single isomer, unassigned) [Example 86], the IC50 in experiment [1] and in experiment [2] was greater than 5000 nM each time.
On to `CCC1CN(CCCO)c2cccc3cc(-c4nc5cc(C(=O)N6C[C@H]7CC[C@@H]6[C@@H]7N)cc(F)c5n4CC)n1c23` (stereo partly drawn) [Example 96, ((1R,4R,7R)-7-amino-2-azabicyclo[2.2.1]heptan-2-yl)(1-ethyl-2-(3-ethyl-1-(3-hydroxypropyl)-2,3-dihydro-1H-pyrrolo[1,2,3-de]quinoxalin-5-yl)-7-fluoro-1H-benzo[d]imidazol-5-yl)methanone], for which the IC50 in experiment [1] (Mus musculus) and in experiment [2] was 100 to 500 nM each time.
